Results published in patent US6949648B2, “Condensed pyrazole derivatives, process for producing the same and use thereof” (Takeda Pharmaceutical Company Limited, priority 2000, dated 2005).
Where a name gives a salt, the structure may show the parent alone.

For `CCCCNc1c2ccccc2nc2c1c(C)nn2-c1ccccn1` [Example 2-7, N-Butyl-N-[3-methyl-1-(2-pyridinyl)-1H-pyrazolo[3,4-b]quinolin-4-yl]amine], the melting point was 97 to 99 °C.
`Cc1nn(-c2ccccn2)c2nc3cc(Cl)c(Cl)cc3c(Cl)c12` [Example 2-75, 4,6,7-Trichloro-3-methyl-1-(2-pyridinyl)-1H-pyrazolo[3,4-b]quinoline] showed a melting point of 213 to 214 °C.
Work on `Cc1cccc(-n2nc(C)c3c(=O)c4cc(F)c(F)cc4[nH]c32)n1` [Example 2-209, 6,7-Difluoro-3-methyl-1-(6-methyl-2-pyridinyl)-1,9-dihydro-4H-pyrazolo[3,4-b]quinolin-4-one] yielded a melting point of 301 to 302 °C.
With `Cc1nn(-c2ccccn2)c2nccc(OCc3ccccc3)c12` [Example 1-32, 4-(Benzyloxy)-3-methyl-1-(2-pyridinyl)-1H-pyrazolo[3,4-b]pyridine] the melting point was 108 to 110 °C.
`Cc1nn(-c2cccnc2)c2nc3ccccc3c(Cl)c12` [Example 2-136, 4-Chloro-3-methyl-1-(3-pyridinyl)-1H-pyrazolo[3,4-b]quinoline] gave a melting point of 144 to 145 °C.
Work on `Cc1cccnc1-n1nc(C)c2c(Cl)c3cccc(C)c3nc21` [Example 2-133, 4-Chloro-3,8-dimethyl-1-(3-methyl-2-pyridinyl)-1H-pyrazolo[3,4-b]quinoline] yielded a melting point of 182 to 185 °C.
In the case of `Cc1cc(C)nc(-n2nc(C)c3c(Cl)c4ccccc4nc32)n1` [Example 2-147, 4-Chloro-1-(4,6-dimethyl-2-pyrimidinyl)-3-methyl-1H-pyrazolo[3,4-b]quinoline], the melting point is reported as 191 to 192 °C.
For `CCOC(=O)c1cnc2c(c(C)nn2-c2ccccn2)c1N` [Example 1-31, Ethyl 4-amino-3-methyl-1-(2-pyridinyl)-1H-pyrazolo[3,4-b]pyridine-5-carboxylate], the melting point was 147 to 149 °C.
`Cc1nn(-c2ccccn2)c2nc3ccccc3c(N)c12` [Example 1-35, 3-Methyl-1-(2-pyridinyl)-1H-pyrazolo[3,4-b]quinolin-4-ylamine] gave a melting point of 210 to 213 °C.
Molecule `Cc1nn(-c2ccccn2)c2nc3ncccc3c(Cl)c12` [Example 2-196, 4-Chloro-3-methyl-1-(2-pyridinyl)-1H-pyrazolo[3,4-b][1, 8]naphthyridine] has a melting point of 204 to 205 °C.
With `Cc1nn(-c2nccs2)c2nc3ccccc3c(Cl)c12` [Example 2-149, 4-Chloro-3-methyl-1-(1,3-thiazol-2-yl)-1H-pyrazolo[3,4-b]quinoline] the melting point was 208 to 209 °C.
`Cc1cccnc1-n1nc(C)c2c(N)c3ccccc3nc21` [Example 2-119, 3-Methyl-1-(3-methyl-2-pyridinyl)-1H-pyrazolo[3,4-b]quinolin-4-ylamine] showed a melting point of 202 to 205 °C.
`CCOc1cccc(-n2nc(C)c3c(Cl)c4cccc(C)c4nc32)n1` [Example 2-128, 4-Chloro-3,8-dimethyl-1-(6-ethoxy-2-pyridinyl)-1H-pyrazolo[3,4-b]quinoline] showed a melting point of 151 to 153 °C.
Molecule `Cc1nn(-c2ccccn2)c2[nH]c3c(Cl)cc(Cl)cc3c(=O)c12` [Example 2-77, 6,8-Dichloro-3-methyl-1-(2-pyridinyl)-1,9-dihydro-4H-pyrazolo[3,4-b]quinolin-4-one] has a melting point of 288 to 289 °C.
`FC(F)(F)c1nn(-c2ccccn2)c2nc3ccccc3c(Cl)c12` [Example 2-166, 4-Chloro-1-(2-pyridinyl)-3-trifluoromethyl-1H-pyrazolo[3,4-b]quinoline] gave a melting point of 166 to 168 °C.
Work on `COc1ccc2nc3c(c(C)nn3-c3ccccn3)c(Cl)c2c1` [Example 2-41, 4-Chloro-6-methoxy-3-methyl-1-(2-pyridinyl)-1H-pyrazolo[3,4-b]quinoline] yielded a melting point of 186 to 187 °C.
`Cc1nn(-c2ncccn2)c2nc3ccccc3c(N)c12.Cl` gave a melting point of 287 to 290 °C.
Molecule `CSc1ccc2nc3c(c(C)nn3-c3ccccn3)c(Cl)c2c1` [Example 2-49, 4-Chloro-3-methyl-6-(methylsulfanyl)-1-(2-pyridinyl)-1H-pyrazolo[3,4-b]quinoline] has a melting point of 182 °C.
In the case of `NC(=O)Cc1nn(-c2ccccn2)c2[nH]c3ccccc3c(=O)c12` [Example 2-178, 2-[4-Oxo-1-(2-pyridinyl)-4,9-dihydro-1H-pyrazolo[3,4-b]quinolin-3-yl]acetamide], the melting point is reported as 302 to 305 °C.
With `CCc1c2ccccc2nc2c1c(C)nn2-c1ccccn1` [Example 2-102, 4-Ethyl-3-methyl-1-(2-pyridinyl)-1H-pyrazolo[3,4-b]quinoline] the melting point was 112 to 114 °C.
With `Cc1cccnc1-n1nc(C)c2c(N)c3cccc(C)c3nc21` [Example 2-134, 3,8-Dimethyl-1-(3-methyl-2-pyridinyl)-1H-pyrazolo[3,4-b]quinolin-4-ylamine] the melting point was 199 to 202 °C.
Work on `Cc1nn(-c2nccs2)c2nc3ccccc3c(N)c12` [Example 2-150, 3-Methyl-1-(1,3-thiazol-2-yl)-1H-pyrazolo[3,4-b]quinolin-4-ylamine] yielded a melting point of 261 to 263 °C.
For `COc1cc2nc3c(c(C)nn3-c3ccccn3)c(N)c2cc1OC.Cl`, the melting point was 277 to 280 °C.
For `COc1ccc(-c2nn(-c3ccccn3)c3[nH]c4ccccc4c(=O)c23)cc1` [Example 2-185, 3-(4-Methoxyphenyl)-1-(2-pyridinyl)-1,9-dihydro-4H-pyrazolo[3,4-b]quinolin-4-one], the melting point was 197 to 199 °C.
For `Cc1nn(-c2ccccn2)c2nc3ccc(F)c(F)c3c(Cl)c12` [Example 2-88, 4-Chloro-5,6-difluoro-3-methyl-1-(2-pyridinyl)-1H-pyrazolo[3,4-b]quinoline], the melting point was 240 to 242 °C.
In the case of `CCCCCc1c2ccccc2nc2c1c(C)nn2-c1ccccn1` [Example 2-106, 3-Methyl-4-pentyl-1-(2-pyridinyl)-1H-pyrazolo[3,4-b]quinoline], the melting point is reported as 121 to 122 °C.
`Cc1cccc2c(Cl)c3c(C)nn(-c4ccccn4)c3nc12` [Example 2-35, 4-Chloro-3,8-dimethyl-1-(2-pyridinyl)-1H-pyrazolo[3,4-b]quinoline] gave a melting point of 170 to 172 °C.
With `Cc1nn(-c2ccccn2)c2nc3ccc(Cl)cc3c(N)c12` [Example 2-71, 6-Chloro-3-methyl-1-(2-pyridinyl)-1H-pyrazolo[3,4-b]quinolin-4-ylamine] the melting point was 289 to 292 °C.
`Cc1nn(-c2cccc(Cl)n2)c2[nH]c3ccccc3c(=O)c12` [Example 2-110, 1-(6-Chloro-2-pyridinyl)-3-methyl-1,9-dihydro-4H-pyrazolo[3,4-b]quinolin-4-one] gave a melting point of 251 to 253 °C.
Work on `Cc1nn(-c2ccccn2)c2c1c(=O)c1ccccc1n2C` [Example 2-14, 3,9-Dimethyl-1-(2-pyridinyl)-1,9-dihydro-4H-pyrazolo[3,4-b]quinolin-4-one] yielded a melting point of 192 to 193 °C.
With `Cc1nc2c(c(C)nn2-c2ccccn2)c(O)c1Cc1ccccc1` [Example 1-20, 5-Benzyl-3,6-dimethyl-1-(2-pyridinyl)-1H-pyrazolo[3,4-b]pyridin-4-ol] the melting point was 181 to 182 °C.
With `CCOc1cccc(-n2nc(C)c3c(=O)c4cccc(C)c4[nH]c32)n1` [Example 2-130, 3,8-Dimethyl-1-(6-ethoxy-2-pyridinyl)-1,9-dihydro-4H-pyrazolo[3,4-b]quinolin-4-one] the melting point was 239 to 241 °C.
Work on `Fc1ccc2nc3c(cnn3-c3ccccn3)c(Cl)c2c1` [Example 2-164, 4-Chloro-6-fluoro-1-(2-pyridinyl)-1H-pyrazolo[3,4-b]quinoline] yielded a melting point of 176 to 179 °C.
With `O=c1c2cc(F)c(F)cc2[nH]c2c1cnn2-c1ccccn1` [Example 2-199, 6,7-Difluoro-1-(2-pyridinyl)-1,9-dihydro-4H-pyrazolo[3,4-b]quinolin-4-one] the melting point was > 300 °C.
`Cc1nn(-c2ccccn2)c2[nH]c3cccc(C(=O)O)c3c(=O)c12` [Example 2-62, 3-Methyl-4-oxo-1-(2-pyridinyl)-4,9-dihydro-1H-pyrazolo[3,4-b]quinoline-5-carboxylic acid] gave a melting point of 303 to 306 °C.
In the case of `CCOc1cccc(-n2nc(C)c3c(Cl)c4c(C)cccc4nc32)n1` [Example 2-121, 4-Chloro-3,5-dimethyl-1-(6-ethoxy-2-pyridinyl)-1H-pyrazolo[3,4-b]quinoline], the melting point is reported as 146 to 148 °C.
Molecule `Fc1cccc2nc3c(cnn3-c3ccccn3)c(Cl)c12` [Example 2-162, 4-Chloro-5-fluoro-1-(2-pyridinyl)-1H-pyrazolo[3,4-b]quinoline] has a melting point of 173 to 176 °C.
`Cc1nn(-c2ccccn2)c2nc3cc(F)c(F)cc3c(Cl)c12` [Example 2-90, 4-Chloro-6,7-difluoro-3-methyl-1-(2-pyridinyl)-1H-pyrazolo[3,4-b]quinoline] showed a melting point of 175 to 176 °C.
For `COC(=O)c1ccc2c(Cl)c3c(C)nn(-c4ccccn4)c3nc2c1` [Example 2-66, Methyl 4-chloro-3-methyl-1-(2-pyridinyl)-1H-pyrazolo[3,4-b]quinoline-7-carboxylate], the melting point was 239 to 240 °C.
`CCCCN(C)c1c2ccccc2nc2c1c(C)nn2-c1ccccn1` [Example 2-10, N-Butyl-N-methyl-[3-methyl-1-(2-pyridinyl)-1H-pyrazolo[3,4-b]quinolin-4-yl]amine] showed a melting point of 85 to 87 °C.
Work on `Cc1cccc2c(N)c3c(C)nn(-c4ccccn4)c3nc12.Cl` yielded a melting point of 283 to 286 °C.
In the case of `Cc1nn(Cc2ccccn2)c2nc3ccccc3c(N(C)C)c12` [Example 2-188, N,N-Dimethyl-N-[3-methyl-1-(2-pyridinylmethyl)-1H-pyrazolo[3,4-b]quinolin-4-yl]amine], the melting point is reported as 166 to 168 °C.
For `Cc1nn(Cc2ccccn2)c2nc3ccccc3c(N)c12` (as salt: salt) [Example 2-187, 3-Methyl-1-(2-pyridinylmethyl)-1H-pyrazolo[3,4-b]quinolin-4-ylamine], the melting point was 262 to 265 °C.
Work on `Cc1nn(Cc2ccccn2)c2[nH]c3ccccc3c(=O)c12` [Example 2-189, 3-Methyl-1-(2-pyridinylmethyl)-1,9-dihydro-4H-pyrazolo[3,4-b]quinolin-4-one] yielded a melting point of 269 to 272 °C.
For `Cc1nn(-c2ccccn2)c2ncc(C(=O)N3CCCCC3)c(O)c12` [Example 1-10, [4-Hydroxy-3-methyl-1-(2-pyridinyl)-1H-pyrazolo[3,4-b]pyridin-5-yl](1-piperidinyl)methanone], the melting point was 264 to 266 °C.
